Test results taken from the supplement of paper PMC11061612.

Key:
Assay in all cases: combination Emax (second highest fraction inhibited in the dose matrix, 72 h); higher = more inhibition; extreme values may be limits of the assay
[1] = test system: PL4 (Pancreatic Carcinoma)
Procedure, shortened: (§1)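 Cell lines in DMEM/F12 or RPMI with 10% FBS were plated in 1536-well plates, held 24 hours at 37°C, 5% CO2, then given two-drug dose matrices for 72 hours (DMSO typically 0.2%). Viability was read by CellTiter-Glo 2.0 luminescence and scaled as inhibition from 0 (vehicle wells) to 1 (blank wells). Combination Emax is the second-highest inhibition in the matrix; Bliss excess is observed combination effect minus expected EA + EB − EA·EB, EA and EB being single-agent effects.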

[2] = test system: KP-4 (Pancreatic Carcinoma)
Procedure, shortened: as §1

[3] = test system: MM1S (Plasma Cell Myeloma)
Procedure, shortened: as §1

[4] = test system: NCI-H2373 (Mesothelioma)
Procedure, shortened: as §1

[5] = test system: SNU-423 (Hepatocellular Carcinoma)
Procedure, shortened: as §1

[6] = test system: AM-38 (Glioblastoma)
Procedure, shortened: as §1

[7] = test system: SCC-4 (Oral Cavity Carcinoma)
Procedure, shortened: as §1

[8] = test system: NAMALWA (Burkitt's Lymphoma)
Procedure, shortened: as §1

[9] = test system: T84 (Colorectal Carcinoma)
Procedure, shortened: as §1

[10] = test system: NB1 (Neuroblastoma)
Procedure, shortened: as §1

[11] = test system: T47D (Breast Carcinoma)
Procedure, shortened: as §1

[12] = test system: SK-CO-1 (Colorectal Carcinoma)
Procedure, shortened: as §1

[13] = test system: LCLC-103H (Non-Small Cell Lung Carcinoma)
Procedure, shortened: as §1

[14] = test system: NCI-H3118 (Head and Neck Carcinoma)
Procedure, shortened: as §1

[15] = test system: SiHa (Cervical Carcinoma)
Procedure, shortened: as §1

[16] = test system: GAK (Melanoma)
Procedure, shortened: as §1

[17] = test system: NCI-H596 (Other Solid Carcinomas)
Procedure, shortened: as §1

[18] = test system: RCC-JW (Kidney Carcinoma)
Procedure, shortened: as §1

[19] = test system: Raji (Burkitt's Lymphoma)
Procedure, shortened: as §1

[20] = test system: MS-1 (Small Cell Lung Carcinoma)
Procedure, shortened: as §1

SMILES | combination Emax [1] | combination Emax [2] | combination Emax [3] | combination Emax [4] | combination Emax [5] | combination Emax [6] | combination Emax [7] | combination Emax [8] | combination Emax [9] | combination Emax [10] | combination Emax [11] | combination Emax [12] | combination Emax [13] | combination Emax [14] | combination Emax [15] | combination Emax [16] | combination Emax [17] | combination Emax [18] | combination Emax [19] | combination Emax [20]
Cc1c2c(nn1C)CSCc1cc(n(C)n1)CSc1cc(c3ccccc3c1)OCCCc1c(C(=O)O)n(C)c3c-2c(Cl)ccc13 [AZD5991] + Cn1cnc2c(F)c(Nc3ccc(Br)cc3Cl)c(C(=O)NOCCO)cc21 [Selumetinib] (first compound max 1 µM, 7x7, partner max 3 µM) | 0.573 | 0.226 | 0.998 | 0.318 | 0.27 | 0.709 | 0.839 | 0.999 | 0.406 | 0.238 | 0.364 | 0.818 | 0.176 | 0.481 | 0.305 | 0.776 | 0.241 | 0.228 | 0.756 | 0.375
C[C@@H]1COCCN1c1cc(C2([S@](C)(=N)=O)CC2)nc(-c2ccnc3[nH]ccc23)n1 [AZD6738] + O=C(c1cc(Cc2n[nH]c(=O)c3ccccc23)ccc1F)N1CCN(C(=O)C2CC2)CC1 [Olaparib] (first compound max 10 µM, 7x7, partner max 10 µM) | 0.672 | 0.706 | 0.642 | 0.66 | 0.576 | 0.747 | 0.729 | 0.938 | 0.672 | 0.772 | 0.301 | 0.768 | 0.504 | 0.64 | 0.228 | 0.564 | 0.5 | 0.552 | 0.855 | 0.742
Cc1cc2ncnn2cc1Nc1ncc2c(n1)n(C1CCOCC1)c(=O)n2C [AZD7648] + C=CCn1c(=O)c2cnc(Nc3ccc(N4CCN(C)CC4)cc3)nc2n1-c1cccc(C(C)(C)O)n1 [AZD1775] (first compound max 10 µM, partner max 1 µM) | 0.379 | 0.59 | 0.811 | 0.484 | 0.497 | 0.343 | 0.466 | 0.96 | 0.45 | 0.847 | 0.468 | 0.521 | 0.552 | 0.897 | 0.308 | 0.713 | 0.357 | 0.413 | 0.755 | 0.827
Cc1cc2ncnn2cc1Nc1ncc2c(n1)n(C1CCOCC1)c(=O)n2C [AZD7648] + CCN(CCO)CCCOc1ccc2c(Nc3cc(CC(=O)Nc4cccc(F)c4)[nH]n3)ncnc2c1 [AZD2811] (first compound max 10 µM, 7x7, partner max 1 µM) | 0.142 | 0.4 | 0.346 | 0.534 | 0.341 | 0.405 | 0.307 | 0.432 | 0.287 | 0.629 | 0.456 | 0.549 | 0.377 | 0.239 | 0.335 | 0.237 | 0.243 | 0.447 | 0.19 | 0.342
Cc1cc2ncnn2cc1Nc1ncc2c(n1)n(C1CCOCC1)c(=O)n2C [AZD7648] + CN(C)CCCOc1ccc(-c2ccc3ncc4c(c3c2)n(C2CCOCC2)c(=O)n4C)cn1 [AZD0156] (first compound max 10 µM, 7x7, partner max 1 µM) | 0.0509 | 0.23 | 0.389 | 0.566 | 0.341 | 0.417 | 0.219 | 0.266 | 0.214 | 0.238 | 0.501 | 0.309 | 0.338 | 0.215 | 0.305 | 0.303 | 0.243 | 0.339 | 0.227 | 0.309
Cc1cc2ncnn2cc1Nc1ncc2c(n1)n(C1CCOCC1)c(=O)n2C [AZD7648] + C[C@@H]1COCCN1C2=NC(=NC(=C2)C3(CC3)[S@](=N)(=O)C)C4=C5C=CNC5=NC=C4 [AZD6738] (first compound max 10 µM, 7x7, partner max 10 µM) | 0.631 | 0.44 | 0.592 | 0.674 | 0.524 | 0.758 | 0.575 | 0.936 | 0.706 | 0.775 | 0.464 | 0.563 | 0.58 | 0.647 | 0.32 | 0.578 | 0.365 | 0.568 | 0.779 | 0.728
